From patent publication US20230331715A1, “SPIRO[3.3]HEPTANE DERIVATIVES FOR THE TREATMENT AND PROPHYLAXIS OF HEPATITIS B VIRUS INFECTION” (priority 2020, published 2023)
Read-outs that look alike come from different tables or passages of the source.

Columns and labels:
Assay type in all cases: cell-based
[1] = system: HBsAg; test: PHH HBV natural infection assay, HBsAg (alphalisa)
Procedure: (§1) Detailed procedures regarding primary human hepatocyte (PHH) HBV natural infection assay are described as below. One tube of frozen PHH (10 million cells) is thawed in 37° C. water bath and then transferred to 20 mL of PHH thawing medium (Sigma, InVitroGRO HT Medium, Cat. S03319) with gently mixing. The cells were then centrifuged at […] for 5 min, the supernatant was discarded and the tube was refilled with 25 mL of PHH plating medium (Sigma, InVitroGRO CP Medium, Cat. S03317). The tube was shaken very gently to re-suspend all cells, and then 50 µl of cells were transferred to each well 384-well collagen I coated plate with appropriate liquid handling equipment, e.g. Integra VIAFLO384 or Agilent Bravo. The cells were then cultured for 24 hours in a cell incubator. For HBV infection, after PHH attachment on the culture plate, the plating medium was removed and replenished with PHH culture medium containing HBV virus. The PHH culture medium was prepared with Dulbecco’s Modified Eagle Medium (DMEM)/F12 (1: 1 in volume ratio) containing 10% fetal bovine serum (Gibco, Cat. 10099141), 5 ng/mL human epidermal growth factor (Gibco, Cat.PHG0311L), 20 ng/mL dexamethasone (Sigma, Cat.D4902-100mg), 250 ng/mL human recombinant insulin (Gibco, Cat.41400045) and 100 U/mL penicillin. HBV virus at 200 genome equivalent (GE) per cell with 4% PEG8000 (Sigma, Cat.P1458) containing culture medium were added to the PHH culture medium for infection. The cells were then cultured for 24 hours in cell incubator. Then the cell culture supernatant was removed. The HBV-infected PHH were cultured with sandwich culture method with PHH culture medium containing 1% DMSO and 0.25 mg/mL matrix gel for 72 hours. The supernatant was then refreshed with PHH culture medium containing different concentrations of testing compounds for two times with 72-hour interval. At the end of treatment, the supernatant was collected for viral markers measurements, including HBsAg, HBeAg, HBV DNA and cytotoxicity. HBsAg and HBeAg were detected using alphalisa method using their specific antibodies. For HBV DNA detection, HBV DNA Quantitative Fluorescence Diagnostic Kit (Sansure Biotech Inc.) was used following the manufacture’s protocol. Cytotoxicity was determined using Cell Counting Kit-8 (CCK8, Dojindo Molecular Technologies, Inc.).
(§2) The compounds of the present invention were tested for their capacity to inhibit HBsAg and HBeAg as described herein.

[2] = system: HBeAg; test: PHH HBV natural infection assay, HBeAg (alphalisa)
Procedure: as §1, §2

[3] = Cytotoxicity in PHH natural infection assay (Cell Counting Kit-8); conditions: human; HBV-infected PHH, CCK8, compound refreshed two times with 72-hour interval
Procedure: as §1

[4] = Hepatitis B virus, 72 h, read-out: HBsAg IC50, HBV-infected PHH, culture supernatant, compound refreshed two times with 72-hour interval, alphalisa
[5] = Hepatitis B virus, 72 h, read-out: HBeAg IC50, HBV-infected PHH, culture supernatant, compound refreshed two times with 72-hour interval, alphalisa
[6] = read-out: HBsAg IC50, HBV-infected PHH, culture supernatant, compound refreshed two times with 72-hour interval, alphalisa
[7] = read-out: HBeAg IC50, HBV-infected PHH, culture supernatant, compound refreshed two times with 72-hour interval, alphalisa

| Compound | IC50 [1, 4] | IC50 [2, 5] | CC50 at 144 h [3] | IC50 [1, 6] | IC50 [2, 7] |
| --- | --- | --- | --- | --- | --- |
| NC(=O)c1cc(C(=O)NC2CC3(C2)CC(c2nc4cc(Cl)ccc4s2)C3)ccn1 (stereo not drawn) [Example 11, N4-[6-(5-chloro-1,3-benzothiazol-2-yl)spiro[3.3]heptan-2-yl]pyridine-2,4-dicarboxamide] | 4.06 µM | 6.81 µM | > 50 µM |  |  |
| O=C(CC1CS(=O)(=O)C1)NC1CC2(C1)CC(c1nc3cc(Cl)ccc3s1)C2 (stereo not drawn) [Example 28, N-[6-(5-chloro-1,3-benzothiazol-2-yl)spiro[3.3]heptan-2-yl]-2-(1,1-dioxothietan-3-yl)acetamide] | 3.28 µM | 1.66 µM | > 10 µM |  |  |
| CC(C)(c1cc(C(=O)NC2CC3(C2)CC(c2nc4cc(Cl)ccc4s2)C3)ccn1)S(C)(=O)=O (stereo not drawn) [Example 8, N-[6-(5-chloro-1,3-benzothiazol-2-yl)spiro[3.3]heptan-2-yl]-2-(1-methyl-1-methylsulfonylethyl)pyridine-4-carboxamide] | 1.89 µM | 1.23 µM | 35.9 µM |  |  |
| [H][C@]1(NC(=O)c2ccnc(S(=O)(=O)C3CC3)c2)C[C@@]2(C1)C[C@]([H])(c1nc3cc(Cl)ccc3s1)C2 (single isomer, unassigned) [Example 55-a, (Sa)-N-[6-(5-chloro-1,3-benzothiazol-2-yl)spiro[3.3]heptan-2-yl]-2-cyclopropylsulfonyl-pyridine-4-carboxamide] |  |  | 22.5 µM | 1.56 µM | 1.09 µM |
| CCN(C)c1cc(C(=O)NC2CC3(C2)CC(c2nc4cc(Cl)ccc4s2)C3)ccn1 (stereo not drawn) [Example 47, N-[6-(5-chloro-1,3-benzothiazol-2-yl)spiro[3.3]heptan-2-yl]-2-[ethyl(methyl)amino]pyridine-4-carboxamide] | 5.85 µM | 4.8 µM | > 10 µM |  |  |
| O=C(NC1CC2(C1)CC(c1nc3cc(Cl)ccc3s1)C2)c1ccnc(C(F)(F)F)c1 (stereo not drawn) [Example 4, N-[6-(5-chloro-1,3-benzothiazol-2-yl)spiro[3.3]heptan-2-yl]-2-(trifluoromethyl)pyridine-4-carboxamide] | 5.05 µM | 4.34 µM | > 10 µM |  |  |
| [H][C@]1(NC(=O)c2ccnc(C(N)=O)c2)C[C@]2(C1)C[C@]([H])(c1nc3cc(Cl)ccc3s1)C2 (single isomer, unassigned) [Example 53-b, (Ra)-N4-[6-(5-chloro-1,3-benzothiazol-2-yl)spiro[3.3]heptan-2-yl]pyridine-2,4-dicarboxamide] |  |  | > 10 µM | 5.96 µM | 5.25 µM |
| NS(=O)(=O)c1cccc(C(=O)NC2CC3(C2)CC(c2nc4cc(Cl)ccc4s2)C3)c1 (stereo not drawn) [Example 2, N-[6-(5-chloro-1,3-benzothiazol-2-yl)spiro[3.3]heptan-2-yl]-3-sulfamoyl-benzamide] | 3.71 µM | 3.33 µM | > 10 µM |  |  |
| O=C(NC1CC2(C1)CC(c1nc3cc(Cl)ccc3s1)C2)c1ccc(S(=O)(=O)NC2CC(C(F)(F)F)C2)o1 (stereo not drawn) [Example 24, N-[6-(5-chloro-1,3-benzothiazol-2-yl)spiro[3.3]heptan-2-yl]-5-[[3-(trifluoromethyl)cyclobutyl]sulfamoyl]furan-2-carboxamide] | 1.4 µM | 1.04 µM | 19.7 µM |  |  |
| O=C(NC1CC2(C1)CC(c1nc3cc(Cl)ccc3s1)C2)c1ccc(S(=O)(=O)NC2CC(F)(F)C2)o1 (stereo not drawn) [Example 23, N-[6-(5-chloro-1,3-benzothiazol-2-yl)spiro[3.3]heptan-2-yl]-5-[(3,3-difluorocyclobutyl)sulfamoyl]furan-2-carboxamide] | 1.25 µM | 0.85 µM | 14.3 µM |  |  |
| O=C(NC1CC2(C1)CC(c1nc3cc(Cl)ccc3s1)C2)c1ccnc(N2CCOCC2)c1 (stereo not drawn) [Example 52, N-[6-(5-chloro-1,3-benzothiazol-2-yl)spiro[3.3]heptan-2-yl]-2-morpholino-pyridine-4-carboxamide] | 2.59 µM | 2.79 µM | > 10 µM |  |  |
| O=C(NC1CC2(C1)CC(c1nc3cc(Cl)ccc3s1)C2)C1CS(=O)(=O)C1 (stereo not drawn) [Example 25, N-[6-(5-chloro-1,3-benzothiazol-2-yl)spiro[3.3]heptan-2-yl]-1,1-dioxo-thietane-3-carboxamide] | 2.59 µM | 2.07 µM | > 10 µM |  |  |
| Nc1nc(C(=O)NC2CC3(C2)CC(c2nc4cc(Cl)ccc4s2)C3)cs1 (stereo not drawn) [Example 19, 2-amino-N-[6-(5-chloro-1,3-benzothiazol-2-yl)spiro[3.3]heptan-2-yl]thiazole-4-carboxamide] | 7.55 µM | 6.83 µM | 31.5 µM |  |  |
| CN1CCC(C(=O)NC2CC3(C2)CC(c2nc4cc(Cl)ccc4s2)C3)CC1=O (stereo not drawn) [Example 32, N-[6-(5-chloro-1,3-benzothiazol-2-yl)spiro[3.3]heptan-2-yl]-1-methyl-2-oxo-piperidine-4-carboxamide] | 6.11 µM | 4.13 µM | > 10 µM |  |  |
